Consider two compounds from US20230321012A1 (priority 2021, published 2023).

The nature of data set [1]: Clinical safety and tolerability, dose-limiting toxicities (NCT03536728). The data set is classed as in vivo. The source says:
(§1) Clinical Trial Outline. […] All solid tumor types are eligible for the trial. […] DFMO was delivered orally twice daily in gel capsules.
These DLTs involved vomiting, diarrhea and nausea, and inferred a potential dual drug targeting of the gastrointestinal (GI) tract in these patients. One patient experienced severe dehydration, requiring hospitalization. A similar observation was made in dogs in Aminex's 28-day toxicological testing. […] The clinical observations and the data obtained in dog studies, together, support the hypothesis that combined oral drug dosing levels and DFMO targeting of the GI tract are causing the intolerance.
In cohorts before Part 2, Cohort 4, 14 adults were treated at 1,200 mg or higher of AMXT 1501 daily, either once daily or BID, with no DLTs. A total of 18 patients were treated at 800 mg AMXT 1501 or higher daily with no DLTs. These patients included a couple of adult patients where Cmax values above 1,000 ng/mL AMXT 1501 plasma levels were observed, again with no DLTs observed.

For data set [2], the system named is polyamine transport in T cells (CD4+ and CD4- lymphocytes, whole human blood). Put plainly: Ex vivo blood-based PD bioassay: C5 (fluorescent spermine) uptake into stimulated T cells by FACS. The data set is classed as cell-based. The procedure: To evaluate the target engagement activity of AMXT 1501 after oral administration in human patients, an ex vivo PD assay assessing lymphocyte spermine uptake and inhibition of uptake by AMXT 1501 was developed. Briefly, uptake of a fluorescent-labeled spermine analog conjugate (Fl-Spm, Compound 5, C5, Annereau, J. P., et al., A fluorescent biomarker of the polyamine transport system to select patients with AML for F14512 treatment. Leuk Res. 2010 October; 34(10):1383-9) was assayed by fluorescence-activated cell sorting (FACS) analysis in CD4+ and CD4^− T cells in human blood samples stimulated with anti-CD3+ and anti-CD28+ antibodies.
Polyamine uptake in blood lymphocytes (CD4^+ or CD8^+ T cells) was measured at the same time points as the PK levels for AMXT 1501 were measured. Comparisons were made between uptake in the pre-treatment sample and samples taken over time following dosing.
Pharmacodynamic Bioassay. The purpose of this whole blood assay was to quantify the inhibition of polyamine transport in T cells in human subjects receiving AMXT 1501. Collected whole blood from subjects receiving AMXT 1501 was diluted with serum-free media and stimulated with anti-CD3 (T cell receptor engagement) and anti-CD28 (co-stimulatory signal) to drive T cell activation and proliferation for a total of three days. During the last 12-18 hours of culture, a fluorescently-labeled spermine analog (Fl-Spm, Compound 5, C5) was added to the in vitro culture to monitor polyamine uptake into cells. The functional activity (e.g., inhibitory effect) of AMXT 1501 on C5 uptake by T cells was then determined using flow cytometry by measuring the frequency and median fluorescence intensity (MFI) of C5 in T cells. Activation and proliferation of T cells is required for the uptake of C5; however, in the presence of high concentrations of AMXT 1501 in vitro, C5 uptake is inhibited despite active proliferation of T cells. Therefore, a whole blood sample spiked with high levels of AMXT 1501 prior to culture will be used as a positive control for each subject in this assay. […]
(In flow cytometry, cells or beads pass a laser one at a time.)

In a further data set the test system is four tumor cell lines. Particulars: average, growth of four cell lines in culture; read-out: in vitro EC50 against cancer cells; cited from earlier work.
Data set [3] can be described thus: AMXT 1501 level in tumor biopsy of a melanoma patient. The settings on record: male, human, in vivo.
A short description of data set [4]: Clinical plasma pharmacokinetics of oral DFMO (NCT03536728). The settings on record: human. The class given is in vivo.
Excerpt: as §1

The subject of a further data set is NCI 60-cell line panel. The settings on record: used up to 5 mM, any cell line tested; cited from earlier work.

As a reminder, the AUC is concentration integrated over time. The low end stands for low exposure, the high end for high exposure. As usually defined, the Cmax is the maximum level reached in the sampled fluid or tissue.

In the case of `CCCCCCCCCCCCCCCC(=O)NCCCC[C@@H](N)C(=O)NCCCNCCCCNCCCN` [AMXT 1501, D-lys(palmitoyl)-spermine], the dose-limiting toxicities entry in data set [1] (14 adults at 1,200 mg or higher of AMXT 1501 daily, QD or BID, cohorts before Part 2 Cohort 4) was “no DLTs”; in data set [1] (18 patients at 800 mg AMXT 1501 or higher daily) it was “no DLTs”. Also, the EC50 in data set [2] (Homo sapiens, T-cell, read-out: ED50, inhibition of fluorescent-labeled spermine uptake) was roughly 75 nM; in the data set on four tumor cell lines, 51 nM. In addition, the “ex vivo target engagement activity in patient whole blood” value in data set [2] (several Part 2 Cohort 3 patients, Day 7-8, oral AMXT 1501 dicaprate, preliminary) is on record as “sustained AMXT 1501 target engagement activity”. In addition, in data set [2] (whole human blood, absence of DFMO), the “concentration of maximal fluorescent-labeled spermine uptake inhibition” value came to 250 nM. Further, in data set [3], the Kp was 14.6.
`NCCCC(N)(C(=O)O)C(F)F` (stereo not shown) [DFMO, difluoromethylornithine] had an AUC in data set [4] (500 mg/day split BID, Day 28, n=14) of 11400 ng·h/mL. Further, the Cmax in data set [4] (7-day repeat dosing of 1000 mg split BID, Cohort 3, n=6) came out at 4440 ng/mL. Also, in the data set on NCI 60-cell line panel, the growth inhibitory effect entry is reported as “no growth inhibitory effect”.
